Values quoted from earlier work in PMC8583936, “Machine Learning Assisted Approach for Finding Novel High Activity Agonists of Human Ectopic Olfactory Receptors” (International Journal of Molecular Sciences, 2021).
Like-named read-outs stand apart in the source and are kept apart here.

What was measured:
OR1A1 = molecular target: T1, OR1A1 (Homo sapiens, UniProt Q9P1Q5); settings: cited from earlier work
T1 sequence (Q9P1Q5 1-309): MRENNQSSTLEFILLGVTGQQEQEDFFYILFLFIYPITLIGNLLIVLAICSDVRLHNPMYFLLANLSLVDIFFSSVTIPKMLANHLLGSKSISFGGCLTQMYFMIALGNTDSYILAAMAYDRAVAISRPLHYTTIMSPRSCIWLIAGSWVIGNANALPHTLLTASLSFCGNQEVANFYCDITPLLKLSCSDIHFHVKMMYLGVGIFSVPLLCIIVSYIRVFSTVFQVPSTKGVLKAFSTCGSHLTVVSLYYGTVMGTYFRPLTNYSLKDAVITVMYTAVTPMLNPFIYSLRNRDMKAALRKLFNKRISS

OR2W1 = molecular target: T2, OR2W1 (Homo sapiens, UniProt Q9Y3N9); settings: cited from earlier work
T2 sequence (Q9Y3N9 1-320): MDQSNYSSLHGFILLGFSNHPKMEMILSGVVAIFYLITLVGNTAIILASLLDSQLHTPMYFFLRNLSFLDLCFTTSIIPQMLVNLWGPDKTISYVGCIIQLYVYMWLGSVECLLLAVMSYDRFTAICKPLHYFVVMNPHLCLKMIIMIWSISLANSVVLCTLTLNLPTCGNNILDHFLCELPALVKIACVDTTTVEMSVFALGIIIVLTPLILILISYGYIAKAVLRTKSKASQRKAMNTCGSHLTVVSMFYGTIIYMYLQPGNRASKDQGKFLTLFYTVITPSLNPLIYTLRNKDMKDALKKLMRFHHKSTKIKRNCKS

[1] = Table S1, ref Supplement references [1]-[9] as printed after each odorant name
[2] = Table S2, ref Supplement references [2]-[12] as printed after each odorant name

SMILES | Class (agonist / non-agonist / conflicting info.) for OR1A1 (OR1A1; [1]) | Class (agonist / non-agonist / antagonist / conflicting info.) for OR2W1 (OR2W1; [2]) | Class (agonist / non-agonist / conflicting info.) for OR1A1 (OR1A1) | Class (agonist / non-agonist / antagonist / conflicting info.) for OR2W1 (OR2W1)
CCOC(=O)C(C)=O [Ethyl pyruvate] | Non-agonist | Non-agonist | – | –
CCOc1cc(C=O)ccc1O [Ethyl vanillin] | Conflicting info. | Conflicting info. | – | –
C=CC(=O)CC [Ethyl vinyl ketone] | Non-agonist | Non-agonist | – | –
O=C1CCCCCCCCCCCC(=O)OCCO1 [Ethylene brassylate] | Conflicting info. | Antagonist | – | –
CCOC(=O)Cc1ccccc1 [Ethylphenyl acetate] | – | – | Agonist | Non-agonist
C=CCc1ccc(OC)c(OC)c1 [Eugenol methyl ether] | Conflicting info. | Non-agonist | – | –
C=CCc1ccc(O)c(OC)c1 [Eugenol] | – | – | Conflicting info. | Conflicting info.
C=CCc1ccc(OC(C)=O)c(OC)c1 [Eugenyl acetate] | Non-agonist | Agonist | – | –
C/C=C/C(=O)C(C)CC (stereo not shown) [Filbertone] | Non-agonist | Non-agonist | – | –
CC1=C(O)C(=O)C(C)O1 (stereo not shown) [Furaneol] | Non-agonist | Non-agonist | – | –
SCc1ccco1 [Furfurylthiol] | Non-agonist | Non-agonist | – | –
CCCCCCCC1CCC(=O)O1 (stereo not shown) [Gamma-undecalactone] | – | – | Non-agonist | Non-agonist
CC(C)=CCC/C(C)=C/CO [Geraniol] | Conflicting info. | Conflicting info. | – | –
CC(=O)OC/C=C(\C)CCC=C(C)C [Geranyl acetate] | Conflicting info. | Conflicting info. | – | –
COc1ccccc1O [Guaiacol] | Non-agonist | Non-agonist | – | –
CC(C=O)Cc1ccc2c(c1)OCO2 (stereo not shown) [Helional] | – | – | Agonist | Agonist
CCCCCCC=O [Heptanal] | Conflicting info. | Agonist | – | –
CCCCCCC(=O)O [Heptanoic acid] | Non-agonist | Non-agonist | – | –
CCCCCCCO [Heptanol] | Conflicting info. | Agonist | – | –
CCCCCCCOC(=O)C(C)C [Heptyl isobutyrate] | – | – | Non-agonist | Non-agonist
CCCCCC=O [Hexanal] | Non-agonist | Conflicting info. | – | –
CCCCCC(=O)O [Hexanoic acid] | – | – | Non-agonist | Non-agonist

SMILES | Class (agonist / non-agonist / conflicting info.) for OR1A1 (OR1A1; [1]) | Class (agonist / non-agonist / antagonist / conflicting info.) for OR2W1 (OR2W1; [2]) | Class (agonist / non-agonist / conflicting info.) for OR1A1 (OR1A1) | Class (agonist / non-agonist / antagonist / conflicting info.) for OR2W1 (OR2W1)
CCCCCCO [Hexanol] | Non-agonist | Conflicting info. | – | –
CCCCCCOC(C)=O [Hexyl acetate] | Non-agonist | Agonist | – | –
CCC1OC(C)=C(O)C1=O (stereo not shown) [Homofuraneol] | Non-agonist | Non-agonist | – | –
CC(CC=O)CCCC(C)(C)O (stereo not shown) [Hydroxy-citronellal] | Conflicting info. | Non-agonist | – | –
CC(=O)OCCC(C)C [Isoamyl acetate] | Non-agonist | Agonist | – | –
CC(C)CO [Isobutyl alcohol] | Non-agonist | Non-agonist | – | –
CC(C)CN [Isobutyl amine] | Conflicting info. | Antagonist | – | –
CC(C)C=O [Isobutylraldehyde] | Non-agonist | Non-agonist | – | –
CC(C)C(=O)O [Isobutyric acid] | Non-agonist | Non-agonist | – | –
CC(C)CC=O [Isovaleraldehyde] | Non-agonist | Non-agonist | – | –
CC(C)CC(=O)O [Isovaleric acid] | Non-agonist | Antagonist | – | –
C=CC(C)(O)CCC=C(C)C (stereo not shown) [Linalool] | Conflicting info. | Non-agonist | – | –
CC(C)(O)CCCC1=CCC(C=O)CC1 (stereo not shown) [Lyral] | Conflicting info. | Non-agonist | – | –
Cc1occc(=O)c1O [Maltol] | Non-agonist | Non-agonist | – | –
CC(C)[C@@H]1CC[C@@H](C)CC1=O [Menthone] | Conflicting info. | Non-agonist | – | –
CSCCC=O [Methional] | Non-agonist | Non-agonist | – | –
CSCCCO [Methionol] | Non-agonist | Non-agonist | – | –
CSSc1ccoc1C [Methyl 2-methyl-3-furyl disulfide] | Non-agonist | Non-agonist | – | –
CCC(C)C(=O)OC (stereo not shown) [Methyl 2-methylbutyrate] | Non-agonist | Non-agonist | – | –
COC(=O)c1ccccc1N [Methyl anthranilate] | – | – | Non-agonist | Agonist
COC(=O)c1ccccc1 [Methyl benzoate] | – | – | Non-agonist | Non-agonist
CCCC(=O)OC [Methyl butyrate] | – | – | Non-agonist | Non-agonist
